Data on eight sequences can be found in patent US20080207522A1, “Antimicrobial Peptides” (priority 2004, published 2008).

The test system of assay [1] is Pseudomonas aeruginosa strain H1001. Nature of the assay: Assay for the cleaved (free, soluble) peptides from cellulose support, luminescence killing assay. Type of assay: cell-based. Details: key: 1: Peptides showing stronger killing than Bac2A at a 4 to 8-fold higher dilution; Peptides showing stronger killing compared to that of Bac2A at a 4-fold higher dilution; 3: Peptides similar to Bac2A; 4: Peptides similar to Bac2A at the highest concentration but demonstrating weaker killing at a 2-fold dilution; 5: Peptides giving very weak or no killing at a 2-fold dilution; 6: Peptides with weak killing activity at the highest concentration. To be noted: free (cleaved) peptides, killing relative to Bac2A. The protocol:
Assay for the cleaved peptides from cellulose support. The peptides were cleaved from the dried membrane in an ammonia atmosphere overnight, resulting in free peptides with an amidated C-terminus. The free peptides contained two β-alanines at the C-terminus, in addition to being amidated due to the linker between the cellulose membrane and the peptide sequence. The peptide spots were punched out and transferred in a 96-well microtiter plate. Serial dilutions were carried out from the membrane spots. Four rows were filled with four controls including two with Bac2A and two with of an unrelated peptide. The other eight rows were used for serial dilution steps of the peptide variants. An overnight culture of Pseudomonas aeruginosa strain H1001 was diluted 1:500 using either LB media or 100 mM Tris buffer pH 7.3, 20 mM glucose and was added to the wells (100 μl/well) containing the peptide spots. In all other wells 50 μl were added. The microtiter plate was incubated for 30 min at 37° C. to release the peptides from the membrane. Subsequently, a dilution series were performed and the plate was incubated at 37° C. The luminescence produced by the ATP dependent luciferase system were detected in a time dependent manner using a Tecan Spectra Fluor plus.
(§1) Strains. For the killing assay a mini-Tn5-lux mutant in Pseudomonas aeruginosa H103 was used. The strain is called H1001 and contains a fliC::luxCDABE transcriptional fusion resulting in constitutive expression of luciferase. The bacterial strains used for the antimicrobial activity assays included Escherichia coli UB1005 (F-, nalA37, metB1), a wild-type Salmonella enterica ssp. Typhimurium (S. Typhimurium), wild-type Pseudomonas aeruginosa PAO1 strain H103, Enterococcus faecalis ATCC29212, Staphylococcus aureus ATCC25923, and a clinical isolate of Staphylococcus epidermidis obtained from Dr. D. Speert (Department of Medicine, University of British Columbia). Antifungal activity was tested using a lab isolate of Candida albicans obtained from Dr. B. Dill (Department of Microbiology and Immunology, University of British Columbia).
Peptide synthesis on cellulose is a very effective and inexpensive way to investigate many different peptide variants for one particular activity. However, one of the problems of this technique is the low peptide density synthesized on the membrane, about 280 nmol per cm2. An average peptide spot used for the experiments presented is about 0.3 cm2. Therefore, an assay had to be developed that was sensitive enough to show activity with this amount of peptides. P. aeruginosa H1001 has a reporter system (e.g., a luciferase gene cassette) incorporated into the bacterial chromosome in the fliC gene (involved in flagellar biosynthesis) that is constitutively expressed. It will thus produce light if ATP is present. When this strain is killed, e.g. by peptides, the amount of light produced will decrease due to a decrease in ATP levels in the killed cells. This action can thus be monitored by detecting luminescence in a microtiter plate luminescence reader over time. The volume and amount of cells per well were optimized for this assay. After screening, the killing action was monitored with small amounts of the parent peptide Bac2A (2 μg/ml of free peptide).
Forty-nine scrambled peptides (Bac002-Bac050) were synthesized on the cellulose support and then cleaved by ammonia gas resulting in free peptides with an amidated C-terminus including the linker. The peptide spots were transferred to a 96-well microtiter plate and incubated for 30 min to dissociate the peptides from the cellulose. After serial dilution and addition of strain H1001, luminescence was recorded in a time dependent manner (FIG. 1). All 50 scrambled peptides were compared to Bac2A ([…]-NH2; SEQ ID NO: 1) by this assay (see Table 2). […] Further since all scrambled peptides had some activity, a sequence-specific interaction of the peptides with a receptor or target could be excluded.

The test system of assay [2] is Pseudomonas aeruginosa strain H1001 fliC::luxCDABE. Nature of the assay: Luminescence-based assay for the non-cleaved (bound) peptides on cellulose membranes. Type of assay: cell-based. To be noted: for Luminescence at the given time in minutes: 0 / Luminescence at the given time in minutes: 20 / Luminescence at the given time in minutes: 40 / Luminescence at the given time in minutes: 60 / Luminescence at the given time in minutes: 80 / Luminescence at the given time in minutes: 100 / Luminescence at the given time in minutes: 120 / Luminescence at the given time in minutes: 180 / Luminescence at the given time in minutes: 240: cellulose-bound peptide; for Luminescence at the given time in minutes: 0: 0 min; for Luminescence at the given time in minutes: 20: 20 min; for Luminescence at the given time in minutes: 40: 40 min; for Luminescence at the given time in minutes: 60: 60 min; for Luminescence at the given time in minutes: 80: 80 min; for Luminescence at the given time in minutes: 100: 100 min; for Luminescence at the given time in minutes: 120: 120 min; for Luminescence at the given time in minutes: 180: 180 min; for Luminescence at the given time in minutes: 240: 240 min; for Activity Class bound: uncleaved cellulose-bound peptides. The protocol: Luminescence-based MIC assay for the non-cleaved peptides on cellulose membranes. The peptide spots were punched out and transferred to a 96 well microtiter plate with a clear polystyrene bottom and opaque white polypropylene sides (PerkinElmer, Boston, USA). The spots were washed two times with 100% ethanol for 5 min and afterwards equilibrated five times with 100 mM Tris buffer pH 7.3 for 5 min. An overnight culture of Pseudomonas aeruginosa strain H1001 fliC::luxCDABE was diluted 1:50 in new MH medium and incubated at 37° C. to an OD600 of 0.35. This bacterial culture was diluted 1:25 into 10 mM Tris-HCl buffer, pH 7.3 containing 20 mM glucose. Fifty μl of this culture was added to all wells of the microtiter plate and incubated at 37° C. The luminescence of the strain produced by the ATP-dependent luciferase system was detected in a time dependent manner using a Tecan Spectra Fluor plus (Tecan, Austria). At the end of the experiment, the membranes were cleaned by washing the spots two times with 100% ethanol for five minutes. After removing the ethanol the membrane was air-dried.
as §1
The same set of peptides, as well as the reversed sequence of Bac2A-R ([…]; SEQ ID NO: 2166), were synthesized on cellulose and left uncleaved. The production of light was initially compared in wells containing spots of Bac2A, Bac2A-R (with the reversed sequence of Bac2A), the unrelated negative-control peptide, or, as additional controls, only cellulose, or only bacteria (FIG. 2).
As a control, the negative control (unrelated) peptide Bac429 and parent peptide Bac2A (=Bac001) were used in several different wells of the microtiter plate. Luminescence (relative light units; RLU) was measured at 14 different time points, 9 of which are shown. To permit comparison of the data with the free peptide data set, the result for each peptide was classified into six different groups, like the data set with the free peptides (Table 2). […] For the soluble peptides the following classes were established: […]

Turning to VLARVVARRIRI [Bac040], the “Activity Class Soluble” value in assay [1] was 5. Further, in assay [2], the “Luminescence at the given time in minutes: 0” value (“Luminescence … in minutes: 0” below) came to 4220 RLU, the “Luminescence at the given time in minutes: 20” value (shortened to “Luminescence … in minutes: 20”) came to 6241 RLU, the “Luminescence at the given time in minutes: 40” value (from here on “Luminescence … in minutes: 40”) is given as 4269 RLU and the “Luminescence at the given time in minutes: 60” value (“Luminescence … 60” for short) came to 3951 RLU. In assay [2], the “Luminescence at the given time in minutes: 80” value (“Luminescence … in minutes: 80” for short) was determined as 3368 RLU, the “Luminescence at the given time in minutes: 100” value (“Luminescence … 100” for short) amounted to 2880 RLU, the “Luminescence at the given time in minutes: 120” value (from here on “Luminescence … 120”) amounted to 2761 RLU and the “Luminescence at the given time in minutes: 180” value (from here on “Luminescence … 180”) worked out at 2300 RLU. In addition, in assay [2], the “Luminescence at the given time in minutes: 240” value (from here on “Luminescence … 240”) amounted to 2415 RLU and the “Activity Class bound” value is on record as 5 (Peptides reducing luminescence (lux) values to between 1500 to 3000 after 240 min.).
On to AVRVRRRAILVI [Bac011], for which the “Activity Class Soluble” value in assay [1] amounted to 4. Besides, in assay [2], the “Luminescence … in minutes: 0” value is recorded as 4516 RLU, the “Luminescence … in minutes: 20” value was 7019 RLU, the “Luminescence … in minutes: 40” value came out at 5176 RLU and the “Luminescence … 60” value worked out at 3694 RLU. Also, in assay [2], the “Luminescence … in minutes: 80” value is 2076 RLU, the “Luminescence … 100” value is 1222 RLU, the “Luminescence … 120” value is given as 816 RLU and the “Luminescence … 180” value is listed as 494 RLU. Further, in assay [2], the “Luminescence … 240” value is given as 447 RLU and the “Activity Class bound” value is 3 (Peptides similar to Bac2A resulting in lux values of less than 500 after 240 min.).
Take AVRAIRVLRVIR [Bac015]: in assay [1], the “Activity Class Soluble” value amounted to 3. For the same sequence, in assay [2], the “Luminescence … in minutes: 0” value is given as 4309 RLU, the “Luminescence … in minutes: 20” value worked out at 7112 RLU, the “Luminescence … in minutes: 40” value is recorded as 5227 RLU and the “Luminescence … 60” value is 3783 RLU. For the same sequence, in assay [2], the “Luminescence … in minutes: 80” value was determined as 2656 RLU, the “Luminescence … 100” value stood at 1785 RLU, the “Luminescence … 120” value was 1398 RLU and the “Luminescence … 180” value turned out to be 1244 RLU. In assay [2], the “Luminescence … 240” value was found to be 1320 RLU and the “Activity Class bound” value was 4 (Peptides reducing luminescence (lux) values to between 500 to 1499 after 240 min.).
On to VARIVVRLIRAR [Bac013], for which, in assay [1], the “Activity Class Soluble” value worked out at 3. Moreover, in assay [2], the “Luminescence … in minutes: 0” value was 3890 RLU, the “Luminescence … in minutes: 20” value came to 6850 RLU, the “Luminescence … in minutes: 40” value was 3930 RLU and the “Luminescence … 60” value is on record as 1584 RLU. For the same sequence, in assay [2], the “Luminescence … in minutes: 80” value came to 494 RLU, the “Luminescence … 100” value stood at 193 RLU, the “Luminescence … 120” value is 111 RLU and the “Luminescence … 180” value is given as 100 RLU. In assay [2], the “Luminescence … 240” value is given as 66 RLU and the “Activity Class bound” value is recorded as 3 (Peptides similar to Bac2A resulting in lux values of less than 500 after 240 min.).
Regarding ARRLIVRVRVIA [Bac003], in assay [1], the “Activity Class Soluble” value was found to be 5. In assay [2], the “Luminescence … in minutes: 0” value came to 4138 RLU, the “Luminescence … in minutes: 20” value was 5992 RLU, the “Luminescence … in minutes: 40” value turned out to be 3320 RLU and the “Luminescence … 60” value is 906 RLU. In assay [2], the “Luminescence … in minutes: 80” value was 192 RLU, the “Luminescence … 100” value came to 74 RLU, the “Luminescence … 120” value was determined as 83 RLU and the “Luminescence … 180” value is 76 RLU. Further, in assay [2], the “Luminescence … 240” value was found to be 36 RLU and the “Activity Class bound” value was 3 (Peptides similar to Bac2A resulting in lux values of less than 500 after 240 min.).
As to IAARRLIRVVRV [Bac012], in assay [1], the “Activity Class Soluble” value was determined as 3. In assay [2], the “Luminescence … in minutes: 0” value was 4045 RLU, the “Luminescence … in minutes: 20” value is on record as 7171 RLU, the “Luminescence … in minutes: 40” value came out at 5701 RLU and the “Luminescence … 60” value came to 5037 RLU. Moreover, in assay [2], the “Luminescence … in minutes: 80” value is reported as 4631 RLU, the “Luminescence … 100” value is listed as 4418 RLU, the “Luminescence … 120” value is 4182 RLU and the “Luminescence … 180” value is given as 4344 RLU. For the same sequence, in assay [2], the “Luminescence … 240” value came out at 5087 RLU and the “Activity Class bound” value is 6 (Peptides having residual luminescence (lux) values greater than 3000 after 240 min.).
For RRIARVIVAVLR [Bac002], the “Activity Class Soluble” value in assay [1] is 3. In assay [2], the “Luminescence … in minutes: 0” value stood at 4340 RLU, the “Luminescence … in minutes: 20” value turned out to be 6090 RLU, the “Luminescence … in minutes: 40” value is given as 1631 RLU and the “Luminescence … 60” value was found to be 135 RLU. In assay [2], the “Luminescence … in minutes: 80” value is given as 58 RLU, the “Luminescence … 100” value worked out at 48 RLU, the “Luminescence … 120” value worked out at 35 RLU and the “Luminescence … 180” value is given as 59 RLU. Moreover, in assay [2], the “Luminescence … 240” value is 48 RLU and the “Activity Class bound” value is reported as 3 (Peptides similar to Bac2A resulting in lux values of less than 500 after 240 min.).
On to LAIVRRARVRIV [Bac031], for which the “Activity Class Soluble” value in assay [1] came out at 5. For the same sequence, in assay [2], the “Luminescence … in minutes: 0” value is on record as 4646 RLU, the “Luminescence … in minutes: 20” value is recorded as 7357 RLU, the “Luminescence … in minutes: 40” value turned out to be 5808 RLU and the “Luminescence … 60” value turned out to be 5146 RLU. Further, in assay [2], the “Luminescence … in minutes: 80” value was 4145 RLU, the “Luminescence … 100” value came out at 3815 RLU, the “Luminescence … 120” value was found to be 3472 RLU and the “Luminescence … 180” value amounted to 3130 RLU. Further, in assay [2], the “Luminescence … 240” value is reported as 3247 RLU and the “Activity Class bound” value was 6 (Peptides having residual luminescence (lux) values greater than 3000 after 240 min.).
